Assays:
[1] = CDDP in combination with Vinblastin, Bleomycin, Aktinomycin und Prednisolon; cited from earlier work
[2] = system: Shvetz-Erythromyelose; experiment: Antineoplastic activity against transplanted Shvetz erythromyelosis in rats; assay type: in vivo, weissen rassenlosen Ratten; conditions: for Grad der Hemmung des Wachstums eines Tumors: i.p. 3x at 24 h intervals from day 4-6 after inoculation, dose I 17.1, II 17,1-27,3, III 27,3, CDDP 8,1, DNS 18,0 mg/kg
Description: Die erfindungsgemässen Verbindung weisen antineonlastische Aktivität in Verbindung mit einer immunomudulierenden Wirkung auf. Die beanspruchten Verbindungen und das erfindungsgemässe Arzneipräparat mit antineoplastischer Wirkung wurden in Versuchen an Tieren und in Kliniken an Menschen untersucht. Untersucht wurde ihre antineoplastische Aktivität gegenüber der überimnften Shvetz-Erythromyelose Die antineoplastische Aktivität jedes der angemeldeten Stoffe bewertete man nach den Ergebnissen der Versuche, die an weissen rassenlosen Ratten mit einem Gewicht von 150 bis 200 g (in Gruppen zu je 10 Tieren) angestellt wurden. Den Tieren wurden 2.10^8 - 2.10^10 Zellen des überimpften Stammes der Shvetz-Erythromyelose subkutan in die Hüfte inokuliert. Am 4. bis 6. Tag nach der Inokulation der Tumorzellen, das heisst in der Periode der logarythmischen Phase des Wachstums eines Tumors, begann man, den Tieren die erfindungsgemässen Verbindungen einzuführen. Die angemeldeten Verbindungen wurden intraperitoneal dreimal mit einem Zeitabstand von 24 stunden in Form von wässerigen Lösungen beziehungsweise wässerigen Suspensionen eingeführt.
Antineoplastische Wirkung der erfindung sgemässen Verbindungen wurde im Vergleich zur Kontrolle (ohne Anwendung der Präparate) und im Vergleich zu den CDDP- und DNS-Präparaten untersucht.
Die antineoplastische Aktivität bewertete man nach folgenden biologischen Kenndaten: Grad der Hemmung des Wachstums eines Tumors, der Uberlebenskraft von Tieren am 10. Tag nach der Inokulation vom Tumorzellen sowie der Lebensdauer von Tieren.

[3] = system: humorale Immunität; experiment: Humoral immunity in tumour-bearing rats immunised with sheep erythrocytes; assay type: in vivo, Ratten der Wistar-Linie; conditions: treated tumour bearers, 4 days after immunisation
Description: Der Einfluss auf die homorale Immunität (Antiteloge- nese)- bewertete man nach der Menge von antikörperbildenden Zellen in der Milz und nach dem Titer von Agglutininen und Hämolysinen im Blütserum.
Der Einfluss der beansprucheen Stoffe auf die humorale Immunität wurde auch im Vergleich zum CDDP und zur DNS untersucht. Dafür wurden Ratten,Tumorträger der Shvetz-Erythromyelose der Wistar-Linie eingesetzt, denen man ein Tumor subkutan in die Hüfte überimpfte. Am 4. Tag nach der Uberimpfung des Tumors begann man ihre Behandlung nach dem gleichen Schema wie auch bei der Untersuchung der zellulären Immunität. Am 8. Tag nach der Uberimpfung des Tumors führte man die Immunisierung der Tiere durch, indem man ihnen intraperitoneal Hammelerythrozyte in einer Dosis von 2.10^6 Zellen einführt. In 4. Tagen nach der Immunisierung tötete man die Tiere mittels Dekapitation unter Anwendung von Athernarkose und man ermittelte den Gehalt an antikörperbildenden Zellen in der Milz nach der Erne-Methode und die Agglutinine- und Hämolysine-Titer im periphärischen Blut mit bekanntnn Methoden.
Der Gehalt an antikörperbildenden Zellen ermittelte man, berechnet auf I0^6 Splenozyte und auf die Gesamtmasse der Milz. Dee Versuchergebnisse sind in der Tabelle 4 angeführt.

[4] = Antibody (agglutinin) titre in serum of intact mice immunised with sheep erythrocytes; assay type: in vivo, Mäuse-Linien CBA und C57Bl6
Description: Der Einfluss der beanspruchten Stoffe auf die Antitelogenese wurde auch an zwei gegensätzlich auf Hammelerythrozyte reagierenden Mäuse-Linien: CBA und C57Bl6 untersucht. Man verwendete Tiere mit einem Gewicht von 20+2 g, die einer Quarantäne innerhalb von mindestens 20 Tagen ausgesetzt wurden. […] In einer Stunde wurden die Tiere immunisiert, indem man ihnen intraperitoneal I0^8 Zellen der Hammelerythrozyte einführt..Am 7., 14. und 30. Tag tötete man die Tiere und ermittelte man den Gehalt an Agglutininen im Blutserum in an sich bekannter Weise. Die Ergebnisse wurden in Form lg2 der Antikörper-Titer ausgedrückt. Die Ergebnisse sind in der Tabelle 5 angeführt.

[5] = system: antikörperbildenden Zellen in der Milz; experiment: Antibody-forming cells in the spleen of mice immunised with sheep erythrocytes; assay type: in vivo, Mäusen der CBA-Linien und C57Bl6-Linie; conditions: CBA and C57Bl6 mice, day 4; CDDP 8,1, DNS 6,0, compounds 13,6 mg/kg i.p.; numeric Table 6 is an image
Experimental: Es wurden Untersuchungen des Einflusses der bean - spruchten Stoffe im Vergleich zu den CDDP- und DNS-Präparaten auf die Bildung von antikörperbildenden Zellen in der Milz von zwei gegensätzlich auf die Hammelerythrozyte reagierenden Mäuse-Linien durchgeführt.
In I Stunde wurden die Tiere immunisiert, indem man ihnen intraperitoneal […] Zellen der Hammelerythrozyte einführte . Am 4. Tag ermittelte man die Anzahl der antikörperbildenden Zellen in der Milz der Tiere der Versuchs-und der Kontrollgruppe (ohne Einführung des Präparats). Der Gehalt an antikörperbildenden Zellen berechnete man auf […] Splenozyte und auf die ganze Milz. Die Ergebnisse der Untersuchungen sind in der Tagelle 6 dargestellt.

[6] = system: zelluläre Immunität; experiment: Cellular immunity: rejection time of a skin allograft in tumour-bearing rats; assay type: in vivo, Männchenratten der Wistar-Linie; conditions: treated tumour bearers; i.p. 3x at 24 h; I 17,1, II 17,1, III 27,3, DNS 12,0, CDDP 8,1 mg/kg
Description: Der Einfluss auf die zelluläre Immunität bewertete man nach der Zeit der Abstossung eines Allotransplantats der Haut eines Tumorträgers.
Der Einfluss der beanspruchten Stoffe auf die zelluläre Immunität wurde an Männchenratten der Wistar-Linie mit einem Gewicht von 150 bis 200 g untersucht. Den Tieren wurde ein Hautlappen mit Abmessungen 2 x 3 cm^2 von den Ratten der August-Linie in die Rückengegend transplantiert. Dann wurden denselben Tieren subkutan 2.10^8 Zellen der Shvetz-Erythromyelose in die Hüfte inokuliert. Am 4. bis 6. […] Zum Vergleich verwendete man die DNS- und CDDP-Präparate, die amn in einer Salz-lösung nach dem gleichen'Schema in Dosen von 12,0 und 8,1 mg/kg einführte. Als Kontrolle dienten intakte Tiere. Die Zeit der Abstossung des Hautlappens fixierte man nach der Änderung seiner Temperatur, Farbe und Elastizität.

[7] = Solubility; assay type: physicochemical; conditions: 20°C
[8] = Acute toxicity, intraperitoneal, rats and mice (with histology of kidney and gut); assay type: in vivo, weissen rassenlosen Ratten; weissen nichtlinearen Mäusen; conditions: i.p. 3x at 2 h intervals, total dose
Description: Die Anzahl der krepierten Tiere in jeder Gruppe wurde alle 21 bis 48 Stunden registriert. In jeder Gruppe waren je 12 Tiere (6 Männchen und 6 Weibchen), die Versuche wurden zweimal wiederholt. Die Ergebnisse der Versuche sind in der Tabelle 2 angeführt.
Die krepierten Tiere wurden obduziert und man führte hystologische Untersuchungen der Nieren und des Darmes durch. Die Tiere, die die beanspruchten Stoffe in einer unter der toxischen Dosis liegenden Menge verabreicht bekamen, wurden in I4 Tagen getötet. Die inneren Organe derselben wurden der Autopsie ausgesetzt.

[9] = pH of a solution in citrate-salt solution (potentiometric); assay type: physicochemical; conditions: 0,015 g (II: 0,018 g) in 1000 ml Zitrat-Salz-Lösung, 20°C
Experimental: Die erfindung sgemässe Verbindung, Poly{hexakis-[Chloroammindiaquaplatin (II)]} - µ - desoxyribonukleat fol- ^gender Formel: [drawing 3] worin n = 1900±90, m = bn,- DNS = (̵C39H49O32N15P4)̵n ..., verliert bei Erhitzung innerhalb von IO Stunden bei einer Temperatur von I80 bis 200°C alle Wassermoleküle. Der Stoff lässt sich schlecht in Wasser, Methanol, Athanol auflösen, er ist nichthygroskopisch. Seine Löslichkeit in wasser bei einer Temperatur von 20°C beträgt 0,002%. Eine Lösung von 0,015 g des beanspruchten Stoffes in I000 ml einer Zitrat-Salz-Lösung (0,015 Mol NaCl + 0,0015 Mol Natriumzitrat) bei einer Temperatur von 20°C hat einen pH-Wert von 5,42 (pH- potentiometrisch).

Row | Compound | Effektivität der Behandlung einer Eierstockgeschwulst [1] [%] | Uberlebenskraft von Tieren ([2]; day 10 after inoculation of tumour cells, same doses as E1) [%] | Grad der Hemmung des Wachstums eines Tumors [2] [%] | Gehalt an antikörperbildenden Zellen je 10^6 Splenozyte [3] | lg2 Antikörper-Titer ([4]; Linie der Mäuse C57Bl6, day 7) | Gehalt an antikörperbildenden Zellen in der Milz [5] | Die Zeit der Abstossung (in Tagen) eines Hauptlappens [6] | Löslichkeit in Wasser [7] | LD50 ([8]; in Lösung) | LD50 ([8]; in Suspension) | pH-Wert [9] | lg2 Antikörper-Titer ([4]; Linie der Mäuse CBA, day 7, single i.p. dose (compounds 13,6, CDDP 8,1, DNS 6,0 mg/kg)) | lg2 Antikörper-Titer ([4]; Linie der Mäuse CBA, day 14) | lg2 Antikörper-Titer ([4]; Linie der Mäuse CBA, day 30) | increase of Uberlebenskraft von Tieren compared with CDDP ([2]; versus CDDP) [%] | lg2 Antikörper-Titer ([4]; Linie der Mäuse C57Bl6, day 14) | lg2 Antikörper-Titer ([4]; Linie der Mäuse C57Bl6, day 30) | LDI00 ([8]; in Lösung) | LDI00 ([8]; in Suspension)
1 | N.N.[Cl][Pt][Cl] [CDDP, cis-Dichlorodiaminplatin(II)] | 100 | 80 | 78 | 20,37±2,03 | 3,80±0,24 | senken |  |  |  |  |  |  |  |  |  |  |  |  | 
2 | Poly {bis[hydroxochloramminaquaplatin(II)] - tetrakis[chloroammindiaquaplatin(II)] - µ - desoxyribonukleat [Verbindung II] |  |  | 94 |  | 6,60±0,32 |  | 6,5±0,5 Tagen | 0,0075% | 66,0 mg/kg | 66,0 mg/kg | > 5,38 | 7,20±0,30 | 7,60±0,32 | 6,40±0,42 |  |  |  |  | 
3 | Poly{hexakis [chlor- amminaquaplatin(II)]} - µ - desoxyribonukleat [Verbindung III] |  |  | 95 |  |  |  | 6,5±0,5 Tagen |  |  | 82,5 mg/kg | 5,44 |  | 8,40±0,42 | 8,50±0,30 | 20 | 6,68±0,29 | 6,32±0,24 |  | 
4 | Poly{hexakis-[Chloroammindiaquaplatin (II)]} - µ - desoxyribonukleat [Verbindung I] |  |  | 84 | 68,4±9,38 |  |  |  | 0,002% |  |  | 5,42 |  |  |  |  | 6,82±0,38 |  | 84,0 mg/kg | 84,0 mg/kg

— EP0374267A1, “DERIVATIVES OF PLATINUM (P) WITH A POLYANION OF DEOXYRIBONUCLEIC ACID, METHOD FOR OBTAINING THEM AND PHARMACEUTICAL ANTITUMOR PREPARATION BASED ON THEM” (priority 1988, dated 1989)
